Results reported in patent US20210379070A1, “MALONATE SALT OF VARLITINIB” (Aslan Pharmaceuticals PTE LTD, priority 2018, published 2021).
“Also recorded” adds a separate entry of the source.

How the values were obtained:
Format in all cases: physicochemical
[1] = Salt disproportionation studies (slurry in water, XRPD at 1, 24 & 48 hours); conditions: room temperature, 1, 24 & 48 hours
Protocol: Salt Disproportionation Studies
Each potential salt was slurried in water at room temperature (ca. 22° C.), with the excess solid taken at 1, 24 & 48 hours and analysed by XRPD. The pH of the supernatant was also monitored.

[2] = Aqueous solubility (slurry in deionised water, 4 and 24 hours, room temperature, HPLC; solids by XRPD); conditions: for Solid form by XRPD after aqueous solubility slurry: 4 and 24 hours; for Aqueous solubility: room temperature
Protocol: Slurries of each potential salt were created in deionised water and agitated for 4 and 24 hours at room temperature. After both 4 and 24 hours, the resulting solutions were analysed by HPLC and the concentration of material dissolved calculated. Remaining solids were analysed by XRPD to determine if any changes had occurred on slurrying.

[3] = Dynamic Vapour Sorption (DVS); conditions: for Solid form by XRPD post DVS: after exposure to varying % RH; for DVS water uptake: between 20-70% RH
Protocol: Dynamic Vapour Sorption (DVS)
Approximately 10 mg of sample was placed into a mesh vapour sorption balance pan and loaded into a DVS-1 dynamic vapour sorption balance by Surface Measurement Systems. The sample was subjected to a ramping profile from 20-90% relative humidity (RH) at 10% increments maintaining the sample at each step until a stable weight had been achieved (99.5% step completion). After completion of the sorption cycle, the sample was dried using the same procedure, but all the way down to 0% RH and finally taken back to the starting point of 20% RH. The weight change during the sorption/desorption cycles were plotted, allowing for the hygroscopic nature of the sample to be determined.

[4] = Thermal analysis (TG/DTA, DSC): onset of degradation; conditions: TG/DTA (TGA)
Protocol: Thermogravimetric Analysis (TGA)
Approximately, 5 mg of material was accurately weighed into an open aluminium pan and loaded into a simultaneous thermogravimetric/differential thermal analyser (TG/DTA) and held at room temperature. The sample was then heated at a rate of 10° C./min from 25° C. to […] the change in sample weight was recorded along with any differential thermal events (DTA). Nitrogen was used as the purge gas, at a flow rate of 100 cm^3/min.
Differential Scanning calorimetry (DSC)
Approximately, 5 mg of material was weighed into an aluminium DSC pan and sealed non-hermetically with a pierced aluminium lid. The sample pan was then loaded into a Seiko DSC6200 (equipped with a cooler). The sample and reference were heated to ca. 220° C. at a scan rate of 10° C./min and the resulting heat flow response monitored.

[5] = Thermodynamic solubility (slurry in media of pH 1, 4.5 and 6.8, ca. 48 hours, HPLC; solids by XRPD); conditions: for Solid form by XRPD after thermodynamic solubility slurry: pH 1, 4.5, 6.8 media
Protocol: Slurries of each potential salt were created in media of pH 1; 4.5 and 6.8 and shaken for ca. 48 hours. The resulting solution was then analysed by HPLC and the concentration of material dissolved calculated. Remaining solids were analysed by XRPD to determine if any changes had occurred on slurrying.

[6] = Hydration studies (slurry in acetone:water 3, 5 and 10% water, ca. 48 hours, XRPD)
Protocol: Slurries of each potential salt were created in acetone:water mixtures (3, 5 and 10% water) and shaken for ca. 48 hours. The resulting solid was then analysed by XRPD to determine if any changes had occurred on slurrying.

[7] = Stability (storage) testing, 1 week, XRPD; conditions: for Storage testing (solid form by XRPD): ambient light, 40° C./75% RH and 80° C., 1 week
Protocol: Each potential salt was exposed to environments of 40° C./75% RH, elevated temperature (80° C.) and ambient light (ca. 22° C. in a closed vial), for 1 week to determine stability. Resulting solids were analysed by XRPD to establish if any changes had occurred.

Aqueous solubility ([2]; 4 hours) [mg/mL]	Aqueous solubility ([2]; 24 hours) [mg/mL]	DVS water uptake [3] [%]	DVS water uptake overall [3] [%]	Onset of degradation [4]	Thermodynamic solubility ([5]; pH1, ca. 48 hours) [mg/mL]	Thermodynamic solubility ([5]; pH 4.5, ca. 48 hours) [mg/mL]	Thermodynamic solubility ([5]; pH 6.8, ca. 48 hours) [mg/mL]	Storage testing (solid form by XRPD) [7]	Hygroscopicity ([3]; DVS)	SMILES	Salt disproportionation on slurrying in water [1]	Solid form by XRPD after aqueous solubility slurry [2]	Solid form by XRPD post DVS [3]	Solid form by XRPD after thermodynamic solubility slurry [5]	Hydration study (solid form after slurrying) [6]	Overall stability in the secondary screen tests ([7]; conclusion over all tests employed)
0.2570	0.4089	1.95	2.84	ca. 150 °C	1.2138	0.0036	< 0.000445	remain unchanged		C[C@@H]1COC(Nc2ccc3ncnc(Nc4ccc(OCc5nccs5)c(Cl)c4)c3c2)=N1.O=C(O)/C=C\C(=O)O [maleate salt]	no change in form of the maleate salt on slurrying in water at 1 hr and 24 hrs. After 48 hrs the material was observed to be predominantly amorphous	remained unchanged after slurrying, with a potential increase in amorphous content	remain unchanged	A change in solid form was observed by XRPD from pH1 and pH4.5	remained unchanged after slurrying, indicating a low hydration risk	
0.4947	0.6036	0.14	0.35		0.7687	0.0028	0.0020	remained unchanged	non-hygroscopic	C[C@@H]1COC(Nc2ccc3ncnc(Nc4ccc(OCc5nccs5)c(Cl)c4)c3c2)=N1.O=C(O)CC(=O)O [malonate salt]	no form change of the malonate salt on slurrying in water; also recorded: No disproportionation or hydration observed	remain unchanged after slurrying	No change to the solid form; also recorded: no change in PXRD post DVS	A change in solid form was observed by XRPD from pH1 and pH4.5	remain unchanged after slurrying, indicating a low hydration risk; also recorded: No disproportionation or hydration observed	good stability throughout the tests employed
				ca. 230 °C						C[C@@H]1COC(Nc2ccc3ncnc(Nc4ccc(OCc5nccs5)c(Cl)c4)c3c2)=N1 [varlitinib, (R)—N4-[3-Chloro-4-(thiazol-2-ylmethoxy)-phenyl]-N6-(4-methyl-4,5,-dihydro-oxazol-2-yl)-quinazoline-4,6-diamine]						
